Results reported in PMC7801115, “Preclinical in vitro screening of newly synthesised amidino substituted benzimidazoles and benzothiazoles” (Journal of Enzyme Inhibition and Medicinal Chemistry, 2021).
Read-outs that look alike come from different tables or passages of the source.

Assays:
A549 [1] = assay: MTS cell viability (cytotoxicity) assay, 2D cell culture; format: cell-based; conditions: Homo sapiens, A549, 2D cell culture, 72 h, ±SD, N = 2, read-out: IC50 antitumor activity A549 2D
Description: (§1) Compounds are diluted 1:3. 500 nL (for 2 D cell culture) or 400 nL (for 3 D cell culture) of compound were transferred from mother plate to test plate by using Mosquito (TTP labtech). DMSO percentage in test concentrations was 0.5 − 1.0%. Starting concentration of the test compounds and standard compound doxorubicin was 50 µM (2 D cell culture) or 100 µM (3 D cell culture).
(§2) Cells were grown in 96 well cell star polystyrene plates. 10,000 cells/well were seeded in wells 4 h prior the treatment with different compounds concentrations and incubated for 72 h. A cell viability assay was performed according to the manufacturer’s instruction, using CellTiter 96 aqueous solution, MTS kit (Promega, Madison, WI, USA). After 0.5–2 h of cell incubation with MTS in 2 D cell culture, the plates were read using PE EnVision absorbance at 490 nm. […] Since we prefer homogeneous assays (mix and read procedures) and therefore MTS is more practical (one step less than MTT). MTS is more sensitive and accurate in comparison with MTT assay.
(§3) Calculation of IC50 data, curves and QC analysis is made by using Excel tools and GraphPadPrism software (La Jolla, CA), v. […] QC criteria parameters (Z', S:B, R2, HillSlope) were checked for every IC50 curve.

NCI-H358 [2] = assay: as above; format: cell-based; conditions: Homo sapiens; NCI-H358, 2D cell culture, 72 h, MTS; ±SD, N = 2; read-out: IC50 antitumor activity NCI-H358 2D
Description: as §1, §2, §3

HCC827 [3] = assay: as above; format: cell-based; conditions: Homo sapiens; HCC827, 2D cell culture, 72 h, MTS; ±SD, N = 2; read-out: IC50 antitumor activity HCC827 2D
Description: as §1, §2, §3

A549 [4] = assay: Cell viability assay, 3D hanging drop cell culture (CellTiter GLO 3D); format: cell-based; conditions: Homo sapiens; A549, 3D hanging drop cell culture, 72 h; ±SD, N = 2; read-out: IC50 antitumor activity A549 3D
Description: as §1
(§4) Cells were grown in 96 well Perfecta 3 D hanging drop plates 5000 cell/well for 4 days until spheres were formed (and checked under the microscope). After sphere formation cells were treated with compounds followed by 72 h incubation. Cell viability assay was performed according to the manufacturer’s instruction, using CellTiter GLO 3 D for 3 D cell culture (Promega); cell incubation was 5 min on the shaker followed by 25 min incubation in the dark. Plates were read using PE EnVision luminescence.
as §3

NCI-H358 [5] = assay: as above; format: cell-based; conditions: Homo sapiens; NCI-H358, 3D hanging drop cell culture, 72 h; ±SD, N = 2; read-out: IC50 antitumor activity NCI-H358 3D
Description: as §1, §4, §3

HCC827 [6] = assay: as above; format: cell-based; conditions: Homo sapiens; HCC827, 3D hanging drop cell culture, 72 h; ±SD, N = 2; read-out: IC50 antitumor activity HCC827 3D
Description: as §1, §4, §3

Stability in plasma = format: in vitro ADME; conditions: 37 °C
Description: Tested compounds (final concentration of 5 µM, 0.5% DMSO) were incubated for 4 h at 37 °C in human and mouse plasma, respectively. Aliquots were taken at different time points (0, 30, 120 and 240 min) and reaction was terminated by addition of a MeCN/MeOH (2:1) mixture, containing internal standard (diclofenac). Samples were then centrifuged (at 4500 rpm, at 4 °C, for 30 min) and resulting supernatants were subjected to LC-MS/MS analysis. The same procedure was followed for controls used in the assay: propranolol (both species), benfluorex (mouse) and eucatropine (human), respectively.
(§5) All ADME samples were analysed on a Sciex API 4000 or Sciex API4500 Triple Quadrupole Mass Spectrometer (Sciex, Framingham, MA, USA) coupled to a UHPLC System (Shimadzu Nexera X2; Shimadzu, Kyoto, Japan). Samples were injected onto an UPLC column (HALO2 C18, 2.1 × 20 mm, 2 µm or Phenomenex Luna Omega Polar C18, 30 × 2.1 mm, 1.6 µm) and eluted with a gradient at temperature of 50 °C. The mobile phase was composed of acetonitrile (with 0.1% formic acid) and 0.1% formic acid in deionised water. A total run time was 1 or 1.5 min, with the flow rate of 0.7 ml/min (under gradient conditions). A positive ion mode with turbo spray, an ion source temperature of 500 °C and a dwell time of 150 ms were utilised for mass spectrometric detection. Multiple reaction monitoring (MRM) was used at the specific transitions for each compound/control tested: compound 5c: 361.9 → 304.9; compound 5d: 344.8 → 287.9; compound 5e: 349.8 → 292.9; compound 5 g: 350.8 → 293.9; compound 5 h: 344.0 → 286.9; compound 6a: 276.9 → 220.0; compound 5 b: 319.0 → 262.0; compound 6 b: 302.1 → 245.1; compound 6c: 344.9 → 288.0; compound 6d: 333.0 → 276.0; compound 6e: 316.1 → 259.0; compound 6f: 327.1 → 270.0; compound 6 g: 377.1 → 320.1; testosterone: 289.3→ 97.1; propranolol: 260.1 → 182.8; caffeine: 195.2 → 138.1; acebutolol: 337.2 → 116.2, nicardipine: 480.2 → 315.0; verapamil: 455.4 → 165.1; amprenavir: 506.2 → 245.4; diclofenac: 296.1 → 213.7 or 296.2 → 215.3; eucatropine: 292.2 → 109.1; benfluorex: 352.1 → 230.3, and warfarin: 309.2 → 163.2

[7] = Plasma protein binding, equilibrium dialysis; format: in vitro ADME; conditions: for fraction unbound at 4 h, 5 µM: equilibrium dialysis 4 h, 37 °C; for recovery at 4 h, 5 µM: recovery in PPB experiment (value in brackets)
Description: The extent of binding to plasma proteins was assessed using equilibrium dialysis method. Plasma (human and mouse) was spiked with test compounds and three controls (nicardipine and verapamil in both species, acebutolol in human and caffeine in mouse plasma) to obtain final concentration of 5 µM (0.5%DMSO). Hydrated membranes were inserted into equilibrium dialysis unit (HT Dialysis) according to manufacturer’s instructions. The dialysate side was then loaded with appropriate volume of buffer, while the same volume of spiked plasma was added into sample side of the well. Incubation lasted 4 h at 37 °C with gentle shaking. Afterwards, protein precipitation was done by mixing matrix matched aliquot of plasma or buffer with 3 volumes of MeCN/MeOH (2:1) mixture, containing internal standard (diclofenac). After centrifugation (at 4500 rpm, at 4 °C, for 30 min) resulting supernatants were subjected to LC-MS/MS.
as §5

[8] = human plasma, read-out: PPB % bound, Human (converted)
[9] = mouse plasma, read-out: PPB % bound, Mouse (converted)

Row | Structure (SMILES) | IC50 (A549 [1]) [µM] | IC50 (NCI-H358 [2]) [µM] | IC50 (HCC827 [3]) [µM] | IC50 (A549 [4]) [µM] | IC50 (NCI-H358 [5]) [µM] | IC50 (HCC827 [6]) [µM] | remaining at 4 h, 5 µM (Stability in plasma; human plasma) [%] | remaining at 4 h, 5 µM (Stability in plasma; mouse plasma) [%] | fraction unbound at 4 h, 5 µM [7, 8] | recovery at 4 h, 5 µM ([7]; human plasma) [%] | fraction unbound at 4 h, 5 µM [7, 9] | recovery at 4 h, 5 µM ([7]; mouse plasma) [%]
1 | Cl.c1ccc2cc(-c3nc4ccc(C5=NCCCN5)cc4s3)ccc2c1 [Compound 5h, 2-(Naphthalene-2-yl)-6–(3,4,5,6-tetrahydropyrimidin-1-ium-2-yl)benzothiazole chloride] | 38 ± 3.68 | 10 ± 1 | 6 ± 0.05 | 14 ± 0.38 | 31 ± 0.33 | 12 ± 0.26 | 74 | 85 | 0.024 | 80 | 0.027 | 85
2 | Cl.FC(F)(F)c1ccc(-c2nc3ccc(C4=NCCCN4)cc3s2)cc1 [Compound 5c, 2–(4-Trifluoromethylphenyl)-6–(3,4,5,6-tetrahydropyrimidin-1-ium-2-yl)benzothiazole chloride] | 34 ± 8.65 | 23 ± 0.79 | 7 ± 0.45 | 16 ± 0.65 | 34 ± 0.7 | 12 ± 0.16 | 83 | 94 | 0.03 | 89 | 0.025 | 86
3 | c1ccc(-c2nc3cc(C4=NCCCN4)ccc3[nH]2)cc1 [Compound 6a, 2-Phenyl-5(6)–(3,4,5,6-tetrahydropyrimidin-1-ium-2-yl)benzimidazole chloride] | 15 ± 1.7 | 13 ± 0.28 | 6 ± 0.5 | 13 ± 1.46 | 17 ± 1.94 | 9 ± 3.05 | 73 | 79 | 0.403 | 75 | 0.371 | 79
